Read-outs that look alike come from different tables or passages of the source. No end group written: not given here.
Columns and labels:
Mice [1] = test: Appetite suppression in mice: 20% sucrose consumption, tested immediately after ip injection (Example 2); assay type: in vivo; details: 85 micrograms (equivalent to 3.4 mg/kg) in sterile saline, 10 minute test immediately after injection, versus vehicle control, p-value 0.002
Method: Mice were deprived of their normal food for two days and given free access to a 20% sucrose solution on the first day of food deprivation. After the two day food deprivation period, the mice were injected intraperitoneally with 0.5 ml of a solution containing the test substance. Immediately after injection, individual mice were placed in one of eight 15 cm square test boxes with a stainless steel grid floor and a glass drinking tube which projected into the box. […] Consumption of the sucrose solution was measured over a 10 minute period by electronically recording the total amount of contact with the sucrose solution during the test session. The degree of appetite suppression produced by a given test substance was determined by statistical comparison of the mean duration of sucrose consumption by control (vehicle treated) mice with that of mice treated with a test substance. The degree of appetite suppression in a treated group of mice was expressed as percent difference between the test and control group's response duration means. […]

Mice [2] = test: Appetite suppression in mice: Complan formula milk consumption after subcutaneous injection (Example 4); assay type: in vivo; details: 30 min after injection, p<0.001
Healthy human volunteers = test: Double-blind crossover trial of iv infusion: food intake, satiety, hunger, fullness and appetite in normal human subjects; assay type: in vivo; details: iv infusion 50 pmol/(kg·h)
Source text: Healthy human volunteers (20 subjects) were in a double-blind crossover trial given an iv infusion of 50 pmol/(kg·h) of GLP-1(7-36)amide or saline on separate, but otherwise identical experimental days. The infusion was started at 9.00 and lasted until 15.00. At 9.45 the subjects received a fixed amount of breakfast and at 14.15 they had lunch of an identical composition but ad libitum. The subjects rated their feeling of satiety, hunger, fullness and appetite on a visual analogue scale every half hour.

rats = details: cited from earlier work
[3] = 9.00 to 15.00, 20 subjects, rated every half hour, p=0.007

**Q.** For GLP-1(7-36)amide, which “Suppression of sucrose consumption” value (Mice [1]) is on record?
**A.** Its value is 60%.

**Q.** And the “Suppression of feeding (Complan consumption)” value (Mice [2]; 1 mg/kg)?
**A.** Its value is 45%.

**Q.** What about the “Maximum effect, suppression of feeding (Complan consumption)” value (Mice [2]; 20 mg/kg (highest dose tested)) of the same substance?
**A.** Its value is 60%.

**Q.** Which results are given for “GLP-1: proglucagon fragment 72-108 per b6; as named in the cited rat studies (b7); in b63 it is shorthand for GLP-1(7-36)amide”?
**A.** Satiety (visual analogue scale) versus saline (Healthy human volunteers; 9.00 to 15.00, 20 subjects, rated every half hour, p=0.006): GLP-1>Saline; Appetite (visual analogue scale) versus saline (Healthy human volunteers; [3]): GLP-1<Saline; Hunger (visual analogue scale) versus saline (Healthy human volunteers; [3]): GLP-1<Saline; Fullness (visual analogue scale) versus saline (Healthy human volunteers; 9.00 to 15.00, 20 subjects, rated every half hour, p=0.010): GLP-1>Saline; Energy intake (Healthy human volunteers; ad libitum lunch, saline 4.3 MJ, p-value 0.009): 3.9 mJ; Effect on food intake (rats; administered intracerebroventricularly, Tang-Christensen et al. 1996): profound effect; Effect on food intake (rats; administered intracerebroventricularly, Turton et al. 1996): profound effect; Effect on food intake (rats; peripheral administration, Turton et al. 1996): inactive; Effect on food intake (rats; peripherally administered, Tang-Christensen et al. 1996): no significant effect

**Q.** For “GLP-1(1-36)amide (HDEFERHAEGTFTSDVSSYLEGQAAKEFIAWLVKGR-NH2; UniProt P01275 92-127, looked up, fragment) [GLP-1 fragment 1-36, C-terminal amide]”, which “Effect on food intake” value (rats; Tang-Christensen et al. 1996, route not stated) is on record?
**A.** Its value is “no effect”.
